{"source": "patent USRE39114E1", "about": "“Expression of sucrose phosphorylase in plants” (Monsanto Technology LLC, priority 1995, dated 2006)", "molecules": {"B1": {"name": "Leuconostoc mesenteroides sucrose phosphorylase (Spl, L. mesenteroides SP), wild type, gene spl SEQ ID NO:6 (Leuconostoc mesenteroides) (protein)", "chain": "MEIQNKAMLITYADSLGKNLKDVHQVLKEDIGDAIGGVHLLPFFPSTGDRGFAPADYTRVDAAFGDWADVEALGEEYYLMFDFMINHISRESVMYQDFKKNHDDSKYKDFFIRWEKFWAKAGENRPTQADVDLIYKRKDKAPTQEITFDDGTTENLWNTFGEEQIDIDVNSAIAKEFIKTTLEDMVKHGANLIRLDAFAYAVKKVDTNDFFVEPEIWDTLNEVREILTPLKAEILPEIHEHYSIPKKINDHGYFTYDFALPMTTLYTLYSGKTNQLAKWLKMSPMKQFTTLDTHDGIGVVDARDILTDDEIDYASEQLYKVGANVKKTYSSASYNNLDIYQINSTYYSALGNDDAAYLLSRVFQVFAPGIPQIYYVGLLAGENDIALLESTKEGRNINRHYYTREEVKSEVKRPVVANLLKLLSWRNESPAFDLAGSITVDTPTDTTIVVTRQDENGQNKAVLTADAANKTFEIVENGQTVMSSDNLTQN", "notes": "fragment containing the spl gene, encoding the Leuconostoc mesenteroides sucrose phosphorylase enzyme; made in house; host or cells: E. coli BL21 (DE3)"}}, "key": {"[1]": {"target": "T1, Leuconostoc mesenteroides sucrose phosphorylase (Spl, L. mesenteroides SP), wild type, gene spl SEQ ID NO:6 (Leuconostoc mesenteroides, UniProt Q59495)", "T1 construct": "fragment containing the spl gene, encoding the Leuconostoc mesenteroides sucrose phosphorylase enzyme; made in house; host or cells: E. coli BL21 (DE3)", "T1 sequence (Q59495 1-490)": "B1 chain", "assay": "Kinetic analysis of sucrose phosphorylase Spl (continuous coupled spectrophotometric assay)", "format": "biochemical", "settings": "25° C., pH 7.0, read-out: Km(Pi)", "from_the_text": "(§2) In order to evaluate the kinetic properties of two sucrose phosphorylase enzymes, the sucrose phosphorylase genes from Streptococcus mutans and Leuconostoc mesenteroides were separately cloned into pET15 expression vectors so that they could be overexpressed in E. coli.\n(§3) For the purification of sucrose phosphorylase (Spl or GtfA), colonies of cells containing the correct plasmid construct were picked and used to grow liquid cultures (under Ampicillin selection), induced with IPTG (all purification steps were conducted at 4° C.). After growing an induced cell culture, the bacterial cell pellet was spun down and suspended in Buffer A (50 mM Tris-HCl, pH 7.5, 1 mM EDTA, 5% glycerol and 40 μl/ml protease inhibitor cocktail, purchased from Boehringer Mannheim Cat.#1-697-498)and cells were lysed using a French Press. The cell lysate was clarified by centrifugation at 15,000 rpm for 10 minutes. Ammonium sulfate was added to the supernatant to reach 30% saturation, and the resultant mixture was then applied onto a phenyl-Sepharose 4B column which was pre-equilibrated with Buffer B (10 mM Tris-HCl, pH 8.0, 1 mM DTT and 1 mM EDTA) plus 20% (w/v) ammonium sulfate. […] Combined proteins were concentrated by precipitation with 70% saturation of ammonium sulfate followed by resuspension of the protein pellet in a small volume (2 or 4 ml) of Buffer C (10 mM Tris-HCl, 1 mM EDTA and 10% Glycerol). The sample was dialyzed in 2 liters of Buffer C two to three times (about 2 h for each) to completely remove ammonium sulfate prior to further purification. The dialyzed sample was injected into a Mono Q column which was pre-equilibrated with Buffer C. The sucrose phosphorylase was eluted from the column with a linear gradient of NaCl from 0 to 0.4 M in Buffer C."}, "[2]": {"target": "Leuconostoc mesenteroides sucrose phosphorylase (Spl), gene spl SEQ ID NO:6 (Leuconostoc mesenteroides, UniProt Q59495)", "settings": "50 mM Pi, 100 mM sucrose, 35° C., pH 7.0", "text": "(§1) To further characterize the sucrose phosphorylases from S. mutans and L. mesenteroides, plasmid constructs containing the spl or the gtfA genes were made for protoplast transformation. A 1461 bp NcoI/BamHI fragment, containing the gtfA gene was isolated by restriction digestion, gel purified, and ligated to a 4646 bp BamHI/NcoI vector fragment containing the enhanced 35S promoter (e35S; Kay et al., 1987), the HSP70 intron (U.S. Pat. No. 5,593,874), the Nopaline synthase 3′ region (Fraley et al., 1983), and a pUC vector derived backbone. A vector was thus created, containing the expression cassette [p-e35S/HSP70/gtfA/NOS3′]. After ligation, the plasmid constructs were transformed into competent DH5α cells, and the transformed cells were plated out on Ampicillin-containing medium. From the colonies that were formed, positive clones were identified by restriction digest. In a similar experiment a 1491bp NcoI/BamHI fragment, containing the spl gene, was isolated by restriction digestion, gel purified, and ligated to the same 4646bp BamHI/NcoI vector fragment (described above). After ligation, transformation of competent cells, and identification of positive clones, the resulting plasmid constructs were used for corn leaf protoplast transformation. Corn leaf protoplast transformation was performed essentially as described by Sheen J., 1991, with some modifications to the protocol."}, "[3]": {"target": "Streptococcus mutans sucrose phosphorylase (GtfA), gene gtfA SEQ ID NO:5 (Streptococcus mutans serotype c, UniProt P10249)", "sequence (P10249 whole entry, looked up, change not shown)": "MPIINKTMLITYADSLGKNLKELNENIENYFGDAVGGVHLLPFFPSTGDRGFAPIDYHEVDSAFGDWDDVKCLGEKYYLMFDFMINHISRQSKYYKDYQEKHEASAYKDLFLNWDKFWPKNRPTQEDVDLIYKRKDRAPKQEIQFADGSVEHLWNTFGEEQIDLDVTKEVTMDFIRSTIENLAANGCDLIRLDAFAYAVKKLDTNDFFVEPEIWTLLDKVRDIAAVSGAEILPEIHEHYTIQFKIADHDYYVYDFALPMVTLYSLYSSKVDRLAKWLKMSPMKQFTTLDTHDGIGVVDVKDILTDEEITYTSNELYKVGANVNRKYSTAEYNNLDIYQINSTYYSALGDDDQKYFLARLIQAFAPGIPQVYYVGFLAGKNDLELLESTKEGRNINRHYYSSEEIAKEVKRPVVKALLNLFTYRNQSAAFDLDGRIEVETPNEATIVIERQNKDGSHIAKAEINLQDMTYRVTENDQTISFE", "settings": "50 mM Pi, 100 mM sucrose, 35° C., pH 7.0", "text": "as §1"}, "[4]": {"target": "T2, Streptococcus mutans sucrose phosphorylase (GtfA, S. mutans SP), wild type, gene gtfA SEQ ID NO:5 (Streptococcus mutans serotype c, UniProt P10249)", "T2 sequence (P10249 whole entry, looked up, change not shown)": "as above", "settings": "ratio to L. mesenteroides enzyme", "method": "(§4) The assay reaction mixture (1 ml final volume) contained 50 mM Hepes-NaOH pH 7.0, 50 mM sucrose, 5 mM MgCl2, 1 mM NADP, 20 mM Kpi monobasic pH 7.0 (50 mM for GtfA), 8 IU phosphoglucomutase, 2 IU glucose-6-phosphate dehydrogenase and appropriate amounts of Spl or GtfA. Production of NADPH was monitored spectrophotometrically at 340 nm. One unit of Spl or GtfA activity was defined as the amount of the enzyme which caused the reduction of 1 μmol of NADP per minute under the above conditions. A control reaction in which inorganic phosphate was omitted from the reaction mixture was always conducted for each Spl or GtfA assay."}, "[5]": {"tested_on": "sucrose phosphorylase (microbial)", "settings": "general statement, no method given; cited from earlier work"}, "[6]": {"target": "T2, Streptococcus mutans sucrose phosphorylase (GtfA, S. mutans SP), wild type, gene gtfA SEQ ID NO:5", "parameters": "fragment containing the gtfA gene coding for the Streptococcus mutans sucrose phosphorylase, was cloned into the expression vector pET15b; made in house; host or cells: E. coli BL21 (DE3)", "settings": "compared with endogenous maize endosperm enzymes; in words; cited from earlier work"}, "[7]": {"tested_on": "OC[C@H]1O[C@@](CO)(O[C@H]2O[C@H](CO)[C@@H](O)[C@H](O)[C@H]2O)[C@@H](O)[C@@H]1O", "assay": "purified protein, by the assay type", "settings": "other: 25° C., pH 7.0, S. mutans SP", "method": "as §4"}, "[8]": {"substrate": "OC[C@H]1O[C@@](CO)(O[C@H]2O[C@H](CO)[C@@H](O)[C@H](O)[C@H]2O)[C@@H](O)[C@@H]1O", "assay": "Kinetic analysis of sucrose phosphorylase Spl (continuous coupled spectrophotometric assay)", "format": "biochemical, Leuconostoc mesenteroides", "settings": "other: 25° C., pH 7.0, L. mesenteroides SP", "from_the_text": "as §2, §3"}}}
{"molecule": "O=P(O)(O)O", "note": "[Pi, inorganic phosphate]", "values": [{"measurement": "Km", "setting": "[1]", "value": 4.88, "unit": "mM"}, {"measurement": "activity (% of optimal activity)", "setting": "[2]", "value": "about 80%"}, {"measurement": "activity (% of optimal activity)", "setting": "[3]", "value": 100, "unit": "%"}]}
{"molecule": "OC[C@H]1O[C@@](CO)(O[C@H]2O[C@H](CO)[C@@H](O)[C@H](O)[C@H]2O)[C@@H](O)[C@@H]1O", "note": "[sucrose]", "values": [{"measurement": "Km(sucrose) of the S. mutans enzyme lower than that of the L. mesenteroides enzyme", "setting": "[4]", "value": "about 10 times lower"}, {"measurement": "Vmax of S. mutans sucrose phosphorylase lower than that of the enzyme from L. mesenteroides", "setting": "[4]", "value": "about 9 times lower"}, {"measurement": "Km", "setting": "[5]", "value": "1 to 25", "unit": "mM"}, {"measurement": "Km of GftA for sucrose relative to the endogenous enzymes", "setting": "[6]", "value": "lower Km"}]}
{"molecule": "Streptococcus mutans sucrose phosphorylase (GtfA, S. mutans SP), wild type, gene gtfA SEQ ID NO:5 (Streptococcus mutans UA159)", "values": [{"measurement": "Km", "setting": "[7]", "value": 0.33, "unit": "mM"}, {"measurement": "Vmax", "setting": "[7]", "value": 8.5, "unit": "U/mg"}]}
{"molecule": "B1", "values": [{"measurement": "Km", "setting": "[8]", "value": 3.39, "unit": "mM"}, {"measurement": "Vmax", "setting": "[8]", "value": 71.3, "unit": "U/mg"}]}
